From US20130035326A1 (AMBIT BIOSCIENCES CORPORATION, priority 2009, published 2013)

What was measured:
MV4-11 cells = experiment: MV4-11 cell proliferation assay (Alamar Blue); format: cell-based; conditions: Homo sapiens, MV4-11, 72 h, 3 days incubation
Outline: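 Viability readout: Alamar Blue fluorescence, ex 560/em 590 nm, 3 h after reagent addition, after 3-day exposure of 64,000 MV4-11 cells per well to a 9-point half-log compound series in 0.5% FBS Iscove's. IC50 from duplicate averages, as 50% proliferation inhibition relative to negative control.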

FLT3 kinase = target: T1, FLT3 kinase (Homo sapiens, UniProt P36888); experiment: Competition binding assay, FLT3 Kd
T1 construct: made in house; host or cells: T7 phage display or HEK-293 cells
T1 sequence (P36888 27-993): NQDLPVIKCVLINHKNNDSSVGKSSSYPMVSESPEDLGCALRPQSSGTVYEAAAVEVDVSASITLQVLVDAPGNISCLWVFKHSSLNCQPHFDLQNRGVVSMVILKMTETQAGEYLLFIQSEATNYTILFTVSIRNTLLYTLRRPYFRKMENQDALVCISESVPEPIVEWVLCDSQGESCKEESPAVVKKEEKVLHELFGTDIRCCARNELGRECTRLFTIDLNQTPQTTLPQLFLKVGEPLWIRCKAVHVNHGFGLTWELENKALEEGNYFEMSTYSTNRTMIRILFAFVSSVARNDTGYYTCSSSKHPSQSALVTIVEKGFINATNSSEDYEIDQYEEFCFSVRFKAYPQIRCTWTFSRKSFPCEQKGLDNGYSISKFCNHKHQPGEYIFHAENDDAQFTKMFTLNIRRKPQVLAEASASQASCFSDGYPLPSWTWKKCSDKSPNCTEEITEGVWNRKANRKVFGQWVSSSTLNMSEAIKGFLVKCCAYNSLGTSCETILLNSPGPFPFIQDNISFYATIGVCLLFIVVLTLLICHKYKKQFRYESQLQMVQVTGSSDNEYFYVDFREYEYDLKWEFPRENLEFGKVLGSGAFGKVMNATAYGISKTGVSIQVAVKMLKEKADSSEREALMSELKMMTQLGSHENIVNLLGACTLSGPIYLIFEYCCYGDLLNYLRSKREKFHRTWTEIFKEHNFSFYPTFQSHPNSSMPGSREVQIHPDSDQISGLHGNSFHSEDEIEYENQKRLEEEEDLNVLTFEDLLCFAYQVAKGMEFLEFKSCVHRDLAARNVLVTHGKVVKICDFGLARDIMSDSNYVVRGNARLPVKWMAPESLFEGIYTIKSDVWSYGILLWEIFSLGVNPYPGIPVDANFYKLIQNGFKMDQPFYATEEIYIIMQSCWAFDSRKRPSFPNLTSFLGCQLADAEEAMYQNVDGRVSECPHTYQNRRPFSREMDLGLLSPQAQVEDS
Outline: (§1)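 Kinases, either T7 phage fusions or HEK-293-expressed and DNA-tagged, competed for immobilised biotinylated affinity ligand against test compound, 1 h at RT in binding buffer with 6 mM DTT. Bound kinase eluted with 0.5 μM free ligand and quantified by qPCR; Kd from 11-point threefold dilutions.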

[1] = target: kinase panel containing either 359 or 386 distinct kinases; experiment: Selectivity score S10 from competition binding against a panel of kinases; conditions: compounds at 10 μM; panel of 386 distinct kinases
Outline: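 Compounds were tested at 10 μM in competition binding against T7 phage-fused or HEK-293-expressed DNA-tagged kinases with immobilized affinity ligands, 1 h at room temperature. Bound kinase was quantified by qPCR as percent of DMSO control; S10 is the fraction of distinct kinases (mutants excluded) with POC below 10.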

CSF-1R kinase = target: T2, CSF-1R kinase (Homo sapiens, UniProt P07333); experiment: Competition binding assay, CSF-1R Kd
T2 construct: made in house; host or cells: T7 phage display or HEK-293 cells
T2 sequence (P07333 20-972): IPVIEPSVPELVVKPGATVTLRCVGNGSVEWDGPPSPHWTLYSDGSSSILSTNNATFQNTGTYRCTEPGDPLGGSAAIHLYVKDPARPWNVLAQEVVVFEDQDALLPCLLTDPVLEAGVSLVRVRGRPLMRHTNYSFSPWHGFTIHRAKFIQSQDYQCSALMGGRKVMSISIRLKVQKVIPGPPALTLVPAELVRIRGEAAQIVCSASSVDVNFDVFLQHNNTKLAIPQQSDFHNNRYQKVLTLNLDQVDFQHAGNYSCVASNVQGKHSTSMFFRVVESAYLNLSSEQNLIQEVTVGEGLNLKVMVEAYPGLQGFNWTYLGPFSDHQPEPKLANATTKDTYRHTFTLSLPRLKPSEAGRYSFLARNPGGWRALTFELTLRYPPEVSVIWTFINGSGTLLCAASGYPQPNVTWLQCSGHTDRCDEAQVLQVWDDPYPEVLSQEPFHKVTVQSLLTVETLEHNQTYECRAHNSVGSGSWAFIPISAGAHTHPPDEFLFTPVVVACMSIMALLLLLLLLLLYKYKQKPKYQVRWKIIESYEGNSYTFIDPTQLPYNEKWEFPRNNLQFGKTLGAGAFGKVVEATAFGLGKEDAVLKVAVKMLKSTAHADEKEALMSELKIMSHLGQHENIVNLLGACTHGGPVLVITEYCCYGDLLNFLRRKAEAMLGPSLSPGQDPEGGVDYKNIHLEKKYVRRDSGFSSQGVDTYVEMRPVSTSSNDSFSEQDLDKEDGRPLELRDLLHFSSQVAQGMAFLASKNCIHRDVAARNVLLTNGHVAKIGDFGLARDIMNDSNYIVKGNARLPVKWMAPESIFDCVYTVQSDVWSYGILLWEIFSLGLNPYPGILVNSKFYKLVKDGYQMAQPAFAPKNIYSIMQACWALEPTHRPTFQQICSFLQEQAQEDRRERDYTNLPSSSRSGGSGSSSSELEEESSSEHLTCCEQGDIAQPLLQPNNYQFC
Outline: as §1

KIT kinase = target: T3, KIT kinase (Homo sapiens, UniProt P10721); experiment: Competition binding assay, KIT Kd
T3 construct: made in house; host or cells: T7 phage display or HEK-293 cells
T3 sequence (P10721 26-976): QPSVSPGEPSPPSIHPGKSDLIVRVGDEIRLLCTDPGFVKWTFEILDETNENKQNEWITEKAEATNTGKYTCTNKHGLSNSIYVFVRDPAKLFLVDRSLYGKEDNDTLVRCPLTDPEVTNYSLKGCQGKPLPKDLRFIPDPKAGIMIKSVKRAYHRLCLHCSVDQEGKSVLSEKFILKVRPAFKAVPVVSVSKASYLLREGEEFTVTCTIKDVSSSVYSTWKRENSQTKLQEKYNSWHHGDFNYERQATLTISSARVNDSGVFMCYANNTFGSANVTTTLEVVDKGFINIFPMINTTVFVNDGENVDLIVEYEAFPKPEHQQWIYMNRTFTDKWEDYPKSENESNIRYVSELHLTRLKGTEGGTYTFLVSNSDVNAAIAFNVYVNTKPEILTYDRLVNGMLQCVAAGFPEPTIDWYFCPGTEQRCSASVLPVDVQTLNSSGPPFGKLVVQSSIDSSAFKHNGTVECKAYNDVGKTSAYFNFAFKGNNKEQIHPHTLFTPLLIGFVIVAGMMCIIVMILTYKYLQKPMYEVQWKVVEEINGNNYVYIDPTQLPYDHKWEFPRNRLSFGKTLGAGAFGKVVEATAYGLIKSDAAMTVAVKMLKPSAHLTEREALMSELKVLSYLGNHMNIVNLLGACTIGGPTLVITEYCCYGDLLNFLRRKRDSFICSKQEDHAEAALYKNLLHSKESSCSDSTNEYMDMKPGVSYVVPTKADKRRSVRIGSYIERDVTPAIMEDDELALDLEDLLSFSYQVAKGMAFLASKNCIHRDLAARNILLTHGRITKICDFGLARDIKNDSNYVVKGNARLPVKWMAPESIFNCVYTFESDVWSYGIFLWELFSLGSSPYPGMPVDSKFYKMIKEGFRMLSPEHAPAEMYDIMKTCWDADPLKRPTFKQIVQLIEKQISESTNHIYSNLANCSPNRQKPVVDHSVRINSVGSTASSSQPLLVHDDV
Outline: as §1

Row | IC50 (MV4-11 cells) [nM] | Kd (FLT3 kinase) [nM] | Kinase specificty: S(10)-386 panel [1] | Kd (CSF-1R kinase) [nM] | Kd (KIT kinase) [nM] | SMILES
1 | ≤ 1 | 1 to 10 | B (0.1<B≦0.2 nM) | ≤ 10 | 1 to 10 | CC(C)(C)c1cc(NC(=O)Cc2ccc(-c3cnc4[nH]c(=O)[nH]c4c3)cc2)no1 [Example 147, N-(5-tert-butylisoxazol-3-yl)-2-(4-(2-oxo-2,3-dihydro-1H-imidazo[4,5-b]pyridin-6-yl)phenyl)acetamide]
2 | 1 to 10 | ≤ 1 | A (A≦0.1) | ≤ 10 | 1 to 10 | CC(C)(C)c1cc(NC(=O)Cc2ccc(-c3cnc(N)cc3Cl)cc2)no1.CS(=O)(=O)O [Example 150, 5-(4-(2-(5-tert-butylisoxazol-3-ylamino)-2-oxoethyl)phenyl)-4-chloropyridin-2-aminium methanesulfonate]
3 | 1 to 10 | ≤ 1 | B (0.1<B≦0.2 nM) | ≤ 10 | 10 to 100 | CC(C)(C)c1cc(NC(=O)Cc2ccc(-c3cnc(N)cc3F)cc2)no1.CS(=O)(=O)O [Example 151, 5-(4-(2-(5-tert-butylisoxazol-3-ylamino)-2-oxoethyl)phenyl)-4-fluoropyridin-2-aminium methanesulfonate]
4 | ≤ 1 | ≤ 1 | A (A≦0.1) | ≤ 10 | 1 to 10 | CC(C)(C)c1cc(NC(=O)Cc2ccc(-c3cc(F)c(N)nc3F)cc2)no1.CS(=O)(=O)O [Example 152, 5-(4-(2-(5-tert-butylisoxazol-3-ylamino)-2-oxoethyl)phenyl)-3,6-difluoropyridin-2-aminium methanesulfonate]
5 | 10 to 100 | ≤ 1 | A (A≦0.1) | 100 to 500 | ≤ 1 | CC(C)(C)c1cc(NC(=O)Cc2ccc(-c3ccc(N)nc3)nc2)no1 [Example 155]
6 | 10 to 100 | ≤ 1 | A (A≦0.1) | 10 to 100 | 1 to 10 | CC(C)(C)c1cc(NC(=O)Cc2ccc(-c3cnc(N)cc3C(F)(F)F)cc2)no1 [Example 156]
7 | 1 to 10 | ≤ 1 | A (A≦0.1) | 10 to 100 | 1 to 10 | COc1cc(N)ncc1-c1ccc(CC(=O)Nc2cc(C(C)(C)C)on2)cc1 [Example 157]
8 | ≤ 1 | ≤ 1 | B (0.1<B≦0.2 nM) | ≤ 10 | 1 to 10 | CC(C)(C)c1cc(NC(=O)Cc2ccc(-c3cnc(N)c(C(F)F)c3)cc2)no1 [Example 163]
9 | 1 to 10 | ≤ 1 | B (0.1<B≦0.2 nM) | ≤ 10 | ≤ 1 | COc1cc(-c2ccc(CC(=O)Nc3cc(C4(C)CC4)on3)cc2)cnc1N [Example 164]
10 | 10 to 100 | ≤ 1 | A (A≦0.1) | 10 to 100 | 1 to 10 | Cc1nc(N)cnc1-c1ccc(CC(=O)Nc2cc(C(C)(C)C)on2)cc1 [Example 165]
11 | 10 to 100 | ≤ 1 | A (A≦0.1) | 10 to 100 | 1 to 10 | CC(C)(C)c1cc(NC(=O)Cc2ccc(-c3ccc(N)nc3C#N)cc2)no1 [Example 166]

The remaining lines, values behind:

Row | SMILES | IC50 (MV4-11 cells) [nM] | Kd (FLT3 kinase) [nM] | Kinase specificty: S(10)-386 panel [1] | Kd (CSF-1R kinase) [nM] | Kd (KIT kinase) [nM]
12 | CS(=O)(=O)O.Cc1cc(-c2ccc(CC(=O)Nc3cc(C4(C)COC4)on3)cc2)cnc1N [Example 145, 3-methyl-5-(4-(2-((5-(3-methyloxetan-3-yl)isoxazol-3-yl)amino)-2-oxoethyl)phenyl)pyridin-2-aminium methanesulfonate] | 10 to 100 | ≤ 1 | A (A≦0.1) | ≤ 10 | 1 to 10
13 | CC1(c2cc(NC(=O)Cc3ccc(-c4cnc(N)c(F)c4)cc3)no2)COC1.CS(=O)(=O)O [Example 146, 3-fluoro-5-(4-(2-((5-(3-methyloxetan-3-yl)isoxazol-3-yl)amino)-2-oxoethyl)phenyl)pyridin-2-aminium methanesulfonate] | 1 to 10 | ≤ 1 | A (A≦0.1) | ≤ 10 | ≤ 1
14 | CC(C)(C)c1cc(NC(=O)Cc2ncc(-c3ccc(N)nc3)cc2F)no1.CS(=O)(=O)O [Example 148, 6′-(2-(5-tert-butylisoxazol-3-ylamino)-2-oxoethyl)-5′-fluoro-3,3′-bipyridin-6-aminium methanesulfonate] | 1 to 10 | ≤ 1 | A (A≦0.1) | ≤ 10 | ≤ 1
15 | Nc1ccc(-c2ccc(CC(=O)Nc3cc(C4(C(F)F)CC4)on3)cc2)cn1 [Example 149, 2-(4-(6-aminopyridin-3-yl)phenyl)-N-(5-(1-(difluoromethyl)cyclopropyl)isoxazol-3-yl)acetamide] | 1 to 10 | ≤ 1 | B (0.1<B≦0.2 nM) | ≤ 10 | ≤ 1
16 | CC(F)(F)C1(c2cc(NC(=O)Cc3ccc(-c4ccc(N)nc4)cc3)no2)CC1 [Example 153] | ≤ 1 | ≤ 1 | B (0.1<B≦0.2 nM) | ≤ 10 | 1 to 10
17 | Cc1cc(-c2ccc(CC(=O)Nc3cc(C4(C)CC4)on3)cc2)cnc1N [Example 158] | 1 to 10 | ≤ 1 | A (A≦0.1) | ≤ 10 | ≤ 1
18 | CC(F)(F)C1(c2cc(NC(=O)Cc3ccc(-c4ccc(N)nc4F)cc3)no2)CC1 [Example 159] | ≤ 1 | 1 to 10 | A (A≦0.1) | ≤ 10 | 1 to 10
19 | CC1(c2cc(NC(=O)Cc3ccc(-c4cnc(N)c(Cl)c4)cc3)no2)CC1 [Example 160] | ≤ 1 | ≤ 1 | B (0.1<B≦0.2 nM) | ≤ 10 | ≤ 1
20 | CC1(c2cc(NC(=O)Cc3ccc(-c4cnc(N)c(C(F)(F)F)c4)cc3)no2)CC1 [Example 161] | ≤ 1 | ≤ 1 | B (0.1<B≦0.2 nM) | ≤ 10 | 1 to 10
21 | Cc1nc(N)ccc1-c1ccc(CC(=O)Nc2cc(C3(C)CC3)on2)cc1 [Example 162] | 10 to 100 | ≤ 1 | A (A≦0.1) | ≤ 10 | ≤ 1
22 | Nc1ccc(-c2ccc(CC(=O)Nc3cc(C4(C(F)(F)F)CCC4)on3)cc2)c(F)n1 [Example 167] | ≤ 1 | ≤ 1 | A (A≦0.1) | ≤ 10 | 1 to 10
